pKi: −log10 of the molar value.
biological target: T1, fMet-Leu-Phe receptor (Homo sapiens, UniProt P21462); experiment: FPR1 fluorescent ligand binding inhibitors, dose response, selectivity assay for FPRL1 ligand SAR project, cell-based, flow cytometry, IC50 (AID 762)
T1 sequence (P21462 whole entry): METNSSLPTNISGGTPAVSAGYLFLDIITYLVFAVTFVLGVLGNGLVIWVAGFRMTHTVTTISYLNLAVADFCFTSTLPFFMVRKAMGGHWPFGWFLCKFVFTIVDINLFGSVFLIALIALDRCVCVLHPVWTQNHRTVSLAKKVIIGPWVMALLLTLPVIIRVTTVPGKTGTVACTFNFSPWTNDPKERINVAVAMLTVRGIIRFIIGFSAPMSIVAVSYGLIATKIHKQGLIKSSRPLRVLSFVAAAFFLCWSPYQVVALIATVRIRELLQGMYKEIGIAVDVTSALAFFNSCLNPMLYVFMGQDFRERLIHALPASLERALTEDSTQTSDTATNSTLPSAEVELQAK

Row | Compound | pKi
1 | COc1ccc(-c2cn3cccnc3n2)cc1NC(=O)C1CC1 [MLS000045944] | < 4.33
2 | CCOC(=O)N1CCN(c2nc(-c3ccc(OC)c(OC)c3)cc(C(F)(F)F)n2)CC1 [4-[4-(3,4-dimethoxyphenyl)-6-(trifluoromethyl)-2-pyrimidinyl]-1-piperazinecarboxylic acid ethyl ester] | < 4.48
3 | CCC(=O)Nc1cc(-c2cn3cccnc3n2)ccc1OC [N-(5-imidazo[1,2-a]pyrimidin-2-yl-2-methoxy-phenyl)propanamide] | < 4.31
4 | COc1ccc(CC(=O)Nc2cc(-c3cn4cccnc4n3)ccc2OC)cc1 [N-(5-imidazo[1,2-a]pyrimidin-2-yl-2-methoxy-phenyl)-2-(4-methoxyphenyl)acetamide] | < 4.43
5 | COc1ccc(-c2cc(C(F)(F)F)nc(N3CCN(C(c4ccccc4)c4ccccc4)CC3)n2)cc1OC [2-(4-benzhydrylpiperazin-1-yl)-4-(3,4-dimethoxyphenyl)-6-(trifluoromethyl)pyrimidine] | < 4.57
6 | O=C(N1CCN(c2nc(-c3ccccc3)c3ccccc3n2)CC1)C(F)(F)F [2,2,2-trifluoro-1-[4-(4-phenyl-2-quinazolinyl)-1-piperazinyl]ethanone] | < 4.42
7 | COc1ccc(-c2cn3cccnc3n2)cc1NC(=O)C(C)C [N-(5-imidazo[1,2-a]pyrimidin-2-yl-2-methoxy-phenyl)-2-methyl-propanamide] | < 4.33
8 | COc1ccc(-c2cc(C(F)(F)F)nc(N3CCN(Cc4ccccc4)CC3)n2)cc1OC [2-(4-benzylpiperazin-1-yl)-4-(3,4-dimethoxyphenyl)-6-(trifluoromethyl)pyrimidine] | < 4.50
9 | COc1ccc(-c2cn3cccnc3n2)cc1NC(=O)C1CCCC1 [MLS000045945] | < 4.36
10 | COc1ccc(-c2cc(C(F)(F)F)nc(N3CCN(c4ccccc4)CC3)n2)cc1OC [4-(3,4-dimethoxyphenyl)-2-(4-phenyl-1-piperazinyl)-6-(trifluoromethyl)pyrimidine] | < 4.49
